Laboratory results reported in patent US20210069295A1, “GALECTINS CONTROL MTOR IN RESPONSE TO ENDOMEMBRANE DAMAGE AND PROVIDE A MECHANISM AND TARGET FOR THE TREATMENT OF AUTOPHAGY-RELATED DISEASES” (STC. UNM, priority 2017, published 2021).

How the values were obtained:
Format in all cases: binding
[1] = system: LAMTOR1/p18 and Rag GTPases; test: GST-pulldown assay with in vitro translated proteins; settings: 35S-methionine labeled
Method: (D) Immunoprecipitation analysis of interactions between Gal8 and Ragulator components p14, p18 and MP1. HEK293T cells overexpressing FLAG-tagged Gal8 were immunoprecipitated/collected with anti-FLAG (beads). Cell lysates and collected immune complexes were blotted for endogenous p18, p14, and MP1. (E)(i-ii) GST pulldown assay with in vitro translated Myc-tagged Gal8 or Gal9 and GST-tagged p18. GST-tagged p18 immobilized on Gluthatione sepharose beads were incubated with in vitro translated Myc-tagged Gal8 or Gal9 radiolabeled with 35S-methionine. Interactions were assessed by autoradiography. Data (% binding), means±SEM, n=3, † p≥0.05, **p<0.01, ANOVA. (F)(i-iv) GST pulldown assay with in vitro translated Myc-tagged Rag proteins and GST-tagged Gal8. […] Interactions were assessed by autoradiography. […]
GST and GST-tagged proteins were produced in SoluBL21 Competent E. coli (Genlantis, C700200) and purified by binding to Glutathionine Sepharose 4 Fast Flow beads (GE Healthcare, 17-5132-01) while myc-tagged proteins were in vitro translated using the TNT T7 Reticulocyte Lysate System (Promega, 14610) in the presence of ^35S-methionine. […] Radioactive signals were detected by Fujifilm bioimaging analyzer BAS-5000 and quantified with ScienceLab ImageGuage software (Fujifilm).

[2] = system: AMPKα; test: Co-IP of FLAG-tagged galectins with endogenous AMPKα in HEK293T cells; settings: HEK293T overexpressing FLAG-tagged galectins
[3] = target: T1, TAK1 (Homo sapiens, UniProt O43318); test: Co-IP of FLAG-tagged galectins with GFP-tagged TAK1 in HEK293T cells; settings: HEK293T overexpressing FLAG-tagged galectins and GFP-TAK1
T1 sequence (O43318 1-606): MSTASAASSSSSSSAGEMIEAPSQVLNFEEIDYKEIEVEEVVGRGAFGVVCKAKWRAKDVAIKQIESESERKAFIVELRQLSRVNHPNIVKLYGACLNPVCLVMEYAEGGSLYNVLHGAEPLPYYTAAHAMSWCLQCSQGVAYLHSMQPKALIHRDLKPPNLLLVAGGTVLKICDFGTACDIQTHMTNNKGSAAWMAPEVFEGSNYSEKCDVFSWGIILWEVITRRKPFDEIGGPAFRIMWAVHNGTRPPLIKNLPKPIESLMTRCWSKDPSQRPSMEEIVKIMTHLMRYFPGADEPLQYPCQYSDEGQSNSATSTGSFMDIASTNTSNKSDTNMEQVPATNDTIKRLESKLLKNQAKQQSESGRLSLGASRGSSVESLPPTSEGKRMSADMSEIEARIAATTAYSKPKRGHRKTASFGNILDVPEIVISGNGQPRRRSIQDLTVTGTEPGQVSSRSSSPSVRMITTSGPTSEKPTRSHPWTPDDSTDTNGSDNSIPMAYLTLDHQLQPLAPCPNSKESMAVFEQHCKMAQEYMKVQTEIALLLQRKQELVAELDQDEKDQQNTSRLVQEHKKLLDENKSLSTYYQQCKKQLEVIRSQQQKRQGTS
Method: (A) Analysis of the activation of AMPK in wildtype (WT) and the complementation of Gal9 in Gal9-knockout (Gal9KO) HEK293A cells treated with 100 μM GPN in full medium for 1 h. AMPK activity was monitored by immunoblotting analysis of AMPKα (T172) and acetyl-CoA carboxylase (ACC, S79) phosphorylation (phosphorylated AMPKα (T172) and ACC (S79) relative to total AMPKα and ACC respectively). (B) HEK293T cells transfected with scrambled siRNA (Scr) or Gal9 siRNA (Gal9KD) were treated with 2 mM LLOMe in full medium for 1 h, and the cell lysates were analyzed for phosphorylation of indicated proteins. Data, means±SEM, n=3, *p<0.05, ANOVA. (C) HEK293T cells overexpressing FLAG-Gal9 were treated with 2 mM LLOMe in full medium for 1 h. Cell lysates were analyzed for the indicated proteins. Data, means±SEM, n=3, *p<0.05, ANOVA. (D) Immunoprecipitation analysis of the interactions between galectins and TAK1. HEK293T cells overexpressing FLAG-tagged galectins and GFP-tagged TAK1 were subjected to anti-FLAG immunoprecipitation followed by immunoblotting for GFP-tagged TAK1. (E) Schematic diagram of Gal9 domains and deletion constructs. (F) HEK293T cells overexpressing FLAG-tagged full-length or truncated Gal9 and GFPAMPK were subjected to anti-FLAG immunoprecipitation, followed by immunoblotting for GFP-AMPK. (G) HEK293T cells overexpressing FLAG-tagged full-length or truncated Gal9 and GFP-TAK1 were subjected to anti-FLAG immunoprecipitation, followed by immunoblotting for GFP-TAK1. (H) Analysis of the activation of AMPK in HEK293T cells subjected to knockdowns as indicated treated with 100 μM GPN in full medium for 1 h. AMPK activity was monitored by immunoblotting analysis of AMPKα (T172) and acetyl-CoA carboxylase (ACC, S79) phosphorylation (phosphorylated AMPKα (T172) and ACC (S79) relative to total AMPKα and ACC respectively). Cells transfected with scrambled siRNA were as control (Scr). […]

| Substance | direct binding to Ragulator (LAMTOR1/p18) and Rag GTPases in GST-pulldown [1] | AMPKα in complexes (co-IP) with galectin [2] | interaction with TAK1 [3] |
| --- | --- | --- | --- |
| Gal8: protein of the galectin family encoded by the gene LGALS8; beta-galactoside-binding lectin | direct interactions | not detected | not |
| Gal9: beta-galactoside-binding lectin protein of the galectin family | did not show direct binding | found in co-IPs | interacted |
